According to US20220322673A1, “Novel Agrochemical Combinations” (UPL LIMITED, priority 2019, published 2022):
Read-outs that look alike come from different tables or passages of the source.

Experiments:
Format in all cases: in vivo
[1] = system: Okra Aphids (Aphis gossypii); conditions: for Percent control (%) of Okra Aphids, Nymphs + Adults, A01: A01 = 1 day after first spray; for Percent control (%) of Okra Aphids, Nymphs + Adults, B03: B03 = 3 days after 2nd spray; for Percent control (%) of Okra Aphids, Nymphs + Adults, B07: B07 (after 2nd spray); for Percent control (%) of Okra Aphids, Nymphs + Adults, B10: B10 (after 2nd spray); for Percent control (%) of Okra Aphids, Nymphs + Adults, C03: C03 = 3 days after third spray; for Percent control (%) of Okra Aphids, Nymphs + Adults, C10: C10 (after third spray)
Description: (§1) In this evaluation, feeding damage & insect population on Okra Leaves before and after sprays is averaged and analyzed for the test of significance. Application method: Three applications (application A, B and C) within an interval of 14 days.

[2] = system: Okra Jassids (Amrasca bigutulla bigutulla); conditions: for Percent control (%) of Okra Jassids, Nymphs + Adults, A01: A01 = 1 day after first spray; for Percent control (%) of Okra Jassids, Nymphs + Adults, A10: A10 (after 1st spray); for Percent control (%) of Okra Jassids, Nymphs + Adults, B03: B03 = 3 days after 2nd spray; for Percent control (%) of Okra Jassids, Nymphs + Adults, B07: B07 (after 2nd spray); for Percent control (%) of Okra Jassids, Nymphs + Adults, B10: B10 (after 2nd spray); for Percent control (%) of Okra Jassids, Nymphs + Adults, B14: B14 (after 2nd spray); for Percent control (%) of Okra Jassids, Nymphs + Adults, C03: C03 = 3 days after third spray; for Percent control (%) of Okra Jassids, Nymphs + Adults, C10: C10 (after third spray)
Description: as §1

[3] = system: Corn FAW (Spodoptera frugiperda); conditions: for Percent control (%) A01: A01 = 1 day after first spray; for Percent control (%) A14: A14 = 14 days after 1st spray; for Percent control (%) B03: B03 = 3 days after 2nd spray; for Percent control (%) B07: B07 (after 2nd spray); for Percent control (%) B10: B10 (after 2nd spray); for Percent control (%) B21: B21 (after 2nd spray)
Description: Application method: Two applications (application A and B) within an interval of 14 days. A01=1 day after first spray, A14=14 days after 1st spray, B03=3 days after 2nd spray.

[4] = doses gm a.i./ha: OSA 25, Flonicamid 100, Acephate+Imidacloprid 520, Flonicamid+Fipronil 100+50, Imidacloprid 24.5, Acetamiprid 15
[5] = reduced insecticide dose, gm a.i./ha: OSA 25, Flonicamid (Ulala) 75, Acephate+Imidacloprid 390, Flonicamid+Fipronil 75+37.5, Imidacloprid 18.3, Acetamiprid 11.2
[6] = 25% reduced dose rate, gm a.i./ha: OSA 25, Flonicamid 75, Acephate+Imidacloprid 390, Flonicamid+Fipronil 75+37.5, Imidacloprid 18.3, Acetamiprid 11.2
[7] = 25% reduced dose of insecticide, gm a.i./ha: OSA 25, CTPR 22.5, Acephate 730, Novaluron 56, Novaluron+Lambda cyhalothrin 67.5, Novaluron+Emamectin 93.5
[8] = doses gm a.i./ha: OSA 25, CTPR 30, Acephate 970, Novaluron 75, Novaluron+Lambda cyhalothrin 90, Novaluron+Emamectin 125

O=[N+]([O-])NC1=NCCN1Cc1ccc(Cl)nc1 [Imidacloprid]
Percent control (%) of Okra Aphids, Nymphs + Adults, A01 [1, 4]: 66.9%
Percent control (%) of Okra Aphids, Nymphs + Adults, A01 [1, 5]: 62.7%
Percent control (%) of Okra Aphids, Nymphs + Adults, A10 ([1]; A10 (after 1st spray), doses gm a.i./ha: OSA 25, Flonicamid 100, Acephate+Imidacloprid 520, Flonicamid+Fipronil 100+50, Imidacloprid 24.5, Acetamiprid 15): 82%
Percent control (%) of Okra Aphids, Nymphs + Adults, A14 ([1]; A14 = 14 days after 1st spray, reduced insecticide dose, gm a.i./ha: OSA 25, Flonicamid (Ulala) 75, Acephate+Imidacloprid 390, Flonicamid+Fipronil 75+37.5, Imidacloprid 18.3, Acetamiprid 11.2): 64.3%
Percent control (%) of Okra Aphids, Nymphs + Adults, B03 [1, 4]: 80.7%
Percent control (%) of Okra Aphids, Nymphs + Adults, B03 [1, 5]: 74.4%
Percent control (%) of Okra Aphids, Nymphs + Adults, B07 [1, 4]: 82.7%
Percent control (%) of Okra Aphids, Nymphs + Adults, B07 [1, 5]: 77.2%
Percent control (%) of Okra Aphids, Nymphs + Adults, B10 [1, 4]: 82.2%
Percent control (%) of Okra Aphids, Nymphs + Adults, B10 [1, 5]: 79.1%
Percent control (%) of Okra Aphids, Nymphs + Adults, C03 [1, 4]: 81.3%
Percent control (%) of Okra Aphids, Nymphs + Adults, C03 [1, 5]: 75.4%
Percent control (%) of Okra Aphids, Nymphs + Adults, C10 [1, 4]: 82.6%
Percent control (%) of Okra Aphids, Nymphs + Adults, C10 [1, 5]: 78%
Percent control (%) of Okra Jassids, Nymphs + Adults, A01 [2, 6]: 56%
Percent control (%) of Okra Jassids, Nymphs + Adults, A01 [2, 4]: 59.9%
Percent control (%) of Okra Jassids, Nymphs + Adults, A10 [2, 6]: 59.1%
Percent control (%) of Okra Jassids, Nymphs + Adults, A10 [2, 4]: 64.6%
Percent control (%) of Okra Jassids, Nymphs + Adults, B03 [2, 6]: 61.5%
Percent control (%) of Okra Jassids, Nymphs + Adults, B03 [2, 4]: 68.5%
Percent control (%) of Okra Jassids, Nymphs + Adults, B07 [2, 6]: 62.5%
Percent control (%) of Okra Jassids, Nymphs + Adults, B07 [2, 4]: 71.7%
Percent control (%) of Okra Jassids, Nymphs + Adults, B10 [2, 6]: 63.5%
Percent control (%) of Okra Jassids, Nymphs + Adults, B10 [2, 4]: 70.5%
Percent control (%) of Okra Jassids, Nymphs + Adults, B14 [2, 6]: 62.4%
Percent control (%) of Okra Jassids, Nymphs + Adults, B14 [2, 4]: 66.2%
Percent control (%) of Okra Jassids, Nymphs + Adults, C03 [2, 6]: 64.6%
Percent control (%) of Okra Jassids, Nymphs + Adults, C03 [2, 4]: 68.0%
Percent control (%) of Okra Jassids, Nymphs + Adults, C10 [2, 6]: 66.1%
Percent control (%) of Okra Jassids, Nymphs + Adults, C10 [2, 4]: 73.0%

COP(=O)(NC(C)=O)SC (stereo not drawn) [Acephate]
Percent control (%) A01 [3, 7]: 46.8%
Percent control (%) A01 [3, 8]: 58.1%
Percent control (%) A14 [3, 7]: 50.3%
Percent control (%) A14 [3, 8]: 69.7%
Percent control (%) B03 [3, 7]: 62.1%
Percent control (%) B03 [3, 8]: 76.4%
Percent control (%) B07 [3, 7]: 63.9%
Percent control (%) B07 [3, 8]: 80.5%
Percent control (%) B10 [3, 7]: 64.1%
Percent control (%) B10 [3, 8]: 83.2%
Percent control (%) B21 [3, 7]: 61.6%
Percent control (%) B21 [3, 8]: 80.3%

CNC(=O)c1cc(Cl)cc(C)c1NC(=O)c1cc(Br)nn1-c1ncccc1Cl [CTPR, Chlorantraniliprole]
Percent control (%) A01 [3, 7]: 57.1%
Percent control (%) A01 [3, 8]: 67.6%
Percent control (%) A14 [3, 7]: 66.8%
Percent control (%) A14 [3, 8]: 75.2%
Percent control (%) B03 [3, 7]: 75%
Percent control (%) B03 [3, 8]: 79.9%
Percent control (%) B07 [3, 7]: 77.2%
Percent control (%) B07 [3, 8]: 86.8%
Percent control (%) B10 [3, 7]: 76.2%
Percent control (%) B10 [3, 8]: 88.9%
Percent control (%) B21 [3, 7]: 74.6%
Percent control (%) B21 [3, 8]: 87.0%

O=C(NC(=O)c1c(F)cccc1F)Nc1ccc(OC(F)(F)C(F)OC(F)(F)F)c(Cl)c1 (racemic) [Novaluron, (±)-1-[3-chloro-4-(1,1,2-trifluoro-2-trifluoro-methoxyethoxy)phenyl]-3-(2,6-difluorobenzoyl)urea]
Percent control (%) A01 [3, 7]: 59.3%
Percent control (%) A01 [3, 8]: 60.5%
Percent control (%) A14 [3, 7]: 58.7%
Percent control (%) A14 [3, 8]: 72.5%
Percent control (%) B03 [3, 7]: 68.9%
Percent control (%) B03 [3, 8]: 79.9%
Percent control (%) B07 [3, 7]: 70.1%
Percent control (%) B07 [3, 8]: 88.8%
Percent control (%) B10 [3, 7]: 74.6%
Percent control (%) B10 [3, 8]: 88.9%
Percent control (%) B21 [3, 7]: 73.9%
Percent control (%) B21 [3, 8]: 84.7%
